“Also recorded” adds a separate entry of the source.
Tested on: human PBMCs
Experiment: Human PBMC cytokine response assay (IFN-γ and IFN-α in cell-free medium by ELISA), with or without cPLGA;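 on IFN-α (pg/ml) mean: 20 µg/mL compound for 24 hours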;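 on IFN-γ (pg/ml) mean: 20 µg/mL compound for 24 hours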
Assay type: cell-based
Conditions: for IFN-α mean / IFN-γ mean: mean of donors; for immunomodulatory activity (IFN-γ / IFN-α secretion), in words: used alone (no cPLGA); for IFN-a mean / IFN-g mean: mean of donors 28250-28253; for IFN-γ (pg/ml) 28065: donor 28065 (high background), 1000 = outside assay limits; for IFN-α (pg/ml) 28065: donor 28065; for IFN-α (pg/ml) 28066 / IFN-γ (pg/ml) 28066: donor 28066; for IFN-α (pg/ml) 28067 / IFN-γ (pg/ml) 28067: donor 28067; for IFN-α (pg/ml) 28068 / IFN-γ (pg/ml) 28068: donor 28068
[1] = Table 25, donor 28250, polynucleotides/spacers at amounts equivalent to the CIC, spacers alone 9 uM
[2] = mean of donors 110, 112, 119, 120, Table 14
[3] = 20 ug/ml, 24 h, + PLGA = premixed with 100 μg/ml cPLGA
[4] = mean of Donors 3-4, 20 μg/ml, 24 h
[5] = mean of donors 28065-28068, 20 ug/ml, 24 h, + PLGA = premixed with 100 μg/ml cPLGA
[6] = mean of donors 28057-28060, Table 16
[7] = mean of donors 28185-28188, Table 15

5′-ACGTTCG-3′-HEG-5′-TCGTCGA-3′-HEG-5′-AGATGAT-3′ [Compound C-57]
IFN-α (Table 13, donor 28156): 5 pg/mL | IFN-γ (Table 13, donor 28156): 419 pg/mL | IFN-α (Table 13, donor 28157): 52 pg/mL | IFN-γ (Table 13, donor 28157): 323 pg/mL | IFN-α (Table 13, donor 28158): 61 pg/mL | IFN-γ (Table 13, donor 28158): 67 pg/mL | IFN-α (Table 13, donor 28159): 42 pg/mL | IFN-γ (Table 13, donor 28159): 262 pg/mL | IFN-α mean (Table 13): 40 pg/mL | IFN-γ mean (Table 13): 268 pg/mL | immunomodulatory activity (IFN-γ / IFN-α secretion), in words: somewhat more active than C-58

5′-TCGAGAT-3′-HEG-5′-TCGAGAT-3′-HEG-5′-TCGAGAT-3′ [Compound C-45]
IFN-α (Table 10, donor 28042): 62 pg/mL | IFN-γ (Table 10, donor 28042): 590 pg/mL | IFN-α (Table 10, donor 28043): 123 pg/mL | IFN-γ (Table 10, donor 28043): 1466 pg/mL | IFN-α (Table 10, donor 28044): 152 pg/mL | IFN-γ (Table 10, donor 28044): 984 pg/mL | IFN-α (Table 10, donor 28045): 14 pg/mL | IFN-γ (Table 10, donor 28045): 253 pg/mL | IFN-α mean (Table 10): 88 pg/mL | IFN-γ mean (Table 10): 823 pg/mL | IFN-a (Table 25, donor 28250): 16 pg/mL | IFN-g [1]: 107 pg/mL | IFN-a (Table 25, donor 28251): 109 pg/mL | IFN-g (Table 25, donor 28251): 26 pg/mL | IFN-a (Table 25, donor 28252): 55 pg/mL | IFN-g (Table 25, donor 28252): 95 pg/mL | IFN-a (Table 25, donor 28253): 382 pg/mL | IFN-g (Table 25, donor 28253): 8 pg/mL | IFN-a mean (Table 25): 140 pg/mL | IFN-g mean (Table 25): 59 pg/mL | IFN-α (donor 110, Table 14): 446 pg/mL | IFN-γ (donor 110, Table 14): 880 pg/mL | IFN-α (donor 112, Table 14): 130 pg/mL | IFN-γ (donor 112, Table 14): 192 pg/mL | IFN-α (donor 119, Table 14): 1074 pg/mL | IFN-γ (donor 119, Table 14): 52 pg/mL | IFN-α (donor 120, Table 14): 428 pg/mL | IFN-γ (donor 120, Table 14): 36 pg/mL | IFN-α (pg/ml) mean [2]: 520 pg/mL | IFN-γ (pg/ml) mean [2]: 290 pg/mL | IFN-α induction, in words (used alone): generated more IFN-α than CICs containing a 5′-TCGT-3′

5′-AGATGAT-3′ [Compound P-4, reference compound]
IFN-α (pg/ml) Donor 3 (Donor 3, 20 μg/ml, 24 h): 0 pg/mL | IFN-γ (pg/ml) Donor 3 (Donor 3, 20 μg/ml, 24 h): 0 pg/mL | IFN-α (pg/ml) Donor 4 (Donor 4, 20 μg/ml, 24 h): 58 pg/mL | IFN-γ (pg/ml) Donor 4 (Donor 4, 20 μg/ml, 24 h): 3 pg/mL | IFN-a (Table 25, donor 28250): 16 pg/mL | IFN-g [1]: 72 pg/mL | IFN-a (Table 25, donor 28251): 16 pg/mL | IFN-g (Table 25, donor 28251): 1 pg/mL | IFN-a (Table 25, donor 28252): 16 pg/mL | IFN-g (Table 25, donor 28252): 43 pg/mL | IFN-a (Table 25, donor 28253): 16 pg/mL | IFN-g (Table 25, donor 28253): 1 pg/mL | IFN-a mean (Table 25): 16 pg/mL | IFN-g mean (Table 25): 29 pg/mL | IFN-γ (pg/ml) 28065 [3]: 93 pg/mL | IFN-α (pg/ml) 28065 [3]: 0 pg/mL | IFN-α (pg/ml) 28066 [3]: 0 pg/mL | IFN-γ (pg/ml) 28066 [3]: 1 pg/mL | IFN-α (pg/ml) 28067 [3]: 9 pg/mL | IFN-γ (pg/ml) 28067 [3]: 1 pg/mL | IFN-α (pg/ml) 28068 [3]: 0 pg/mL | IFN-γ (pg/ml) 28068 [3]: 1 pg/mL | IFN-α (pg/ml) mean [4]: 29 pg/mL | IFN-γ (pg/ml) mean [4]: 1 pg/mL | IFN-α (pg/ml) mean [5]: 2 pg/mL | IFN-γ (pg/ml) mean [5]: 24 pg/mL | immunomodulatory activity (IFN-γ / IFN-α secretion), in words: did not have immunomodulatory activity

5′-TCGTCG-3′-(C3)15-5′-T-3′ [Compound C-13]
IFN-α (donor 28057, Table 16): 31 pg/mL | IFN-γ (donor 28057, Table 16): 2 pg/mL | IFN-α (donor 28058, Table 16): 0 pg/mL | IFN-γ (donor 28058, Table 16): 3 pg/mL | IFN-α (donor 28059, Table 16): 249 pg/mL | IFN-γ (donor 28059, Table 16): 12 pg/mL | IFN-α (donor 28060, Table 16): 0 pg/mL | IFN-γ (donor 28060, Table 16): 5 pg/mL | activity when formulated with cPLGA, in words: all had significant activity when formulated on cPLGA | IFN-α (pg/ml) mean [6]: 70 pg/mL | IFN-γ (pg/ml) mean [6]: 6 pg/mL | immunomodulatory activity (IFN-γ / IFN-α secretion), in words: None of the CICs was active when used alone

HEG-5′-TCGTCG-3′-HEG-5′-ACGTTCG-3′-HEG-5′-AGATGAT-3′-TEG [Compound C-30]
IFN-α (Table 9, donor 28089): 134 pg/mL | IFN-γ (Table 9, donor 28089): 0 pg/mL | IFN-α (Table 9, donor 28090): 29 pg/mL | IFN-γ (Table 9, donor 28090): 6 pg/mL | IFN-α (Table 9, donor 28098): 52 pg/mL | IFN-γ (Table 9, donor 28098): 12 pg/mL | IFN-α (Table 9, donor 28099): 47 pg/mL | IFN-γ (Table 9, donor 28099): 20 pg/mL | IFN-α mean (Table 9): 65 pg/mL | IFN-γ mean (Table 9): 9 pg/mL

(5′-TCGTCGA-3′-HEG)2-glycerol-HEG-5′-TCGTCGA-3′ (phosphodiester) [Compound C-93]
IFN-α (Table 9, donor 28089): 0 pg/mL | IFN-γ (Table 9, donor 28089): 0 pg/mL | IFN-α (Table 9, donor 28090): 30 pg/mL | IFN-γ (Table 9, donor 28090): 0 pg/mL | IFN-α (Table 9, donor 28098): 25 pg/mL | IFN-γ (Table 9, donor 28098): 0 pg/mL | IFN-α (Table 9, donor 28099): 29 pg/mL | IFN-γ (Table 9, donor 28099): 3 pg/mL | IFN-α mean (Table 9): 21 pg/mL | IFN-γ mean (Table 9): 1 pg/mL | IFN-α (Table 11, donor 28042): 7 pg/mL | IFN-γ (Table 11, donor 28042): 8 pg/mL | IFN-α (Table 11, donor 28043): 3 pg/mL | IFN-γ (Table 11, donor 28043): 1 pg/mL | IFN-α (Table 11, donor 28044): 81 pg/mL | IFN-γ (Table 11, donor 28044): 41 pg/mL | IFN-α (Table 11, donor 28045): 61 pg/mL | IFN-γ (Table 11, donor 28045): 17 pg/mL | IFN-α mean (Table 11): 38 pg/mL | IFN-γ mean (Table 11): 17 pg/mL | activity when formulated with cPLGA, in words: significantly more active when formulated with cPLGA; also recorded: active only when formulated | immunomodulatory activity (IFN-γ / IFN-α secretion), in words: inactive as CICs alone

5′-TCGTCG-3′-(TEG)8-5′-T-3′ [Compound C-15]
IFN-α (donor 28057, Table 16): 0 pg/mL | IFN-γ (donor 28057, Table 16): 5 pg/mL | IFN-α (donor 28058, Table 16): 0 pg/mL | IFN-γ (donor 28058, Table 16): 3 pg/mL | IFN-α (donor 28059, Table 16): 0 pg/mL | IFN-γ (donor 28059, Table 16): 0 pg/mL | IFN-α (donor 28060, Table 16): 0 pg/mL | IFN-γ (donor 28060, Table 16): 1 pg/mL | activity when formulated with cPLGA, in words: all had significant activity when formulated on cPLGA | IFN-α (pg/ml) mean [6]: 0 pg/mL | IFN-γ (pg/ml) mean [6]: 2 pg/mL | immunomodulatory activity (IFN-γ / IFN-α secretion), in words: None of the CICs was active when used alone

(5′-TCGTCGA-3′)2-glycerol-5′-AACGTTC-3′ [Compound C-27]
IFN-γ (pg/ml) 28065 [3]: 475 pg/mL | IFN-α (pg/ml) 28065 [3]: 3 pg/mL | IFN-α (pg/ml) 28066 [3]: 0 pg/mL | IFN-γ (pg/ml) 28066 [3]: 3 pg/mL | IFN-α (pg/ml) 28067 [3]: 24 pg/mL | IFN-γ (pg/ml) 28067 [3]: 24 pg/mL | IFN-α (pg/ml) 28068 [3]: 16 pg/mL | IFN-γ (pg/ml) 28068 [3]: 226 pg/mL | IFN-a (donor 28185, Table 15): 4 pg/mL | IFN-g (donor 28185, Table 15): 49 pg/mL | IFN-a (donor 28186, Table 15): 4 pg/mL | IFN-g (donor 28186, Table 15): 3 pg/mL | IFN-a (donor 28187, Table 15): 39 pg/mL | IFN-g (donor 28187, Table 15): 21 pg/mL | IFN-a (donor 28188, Table 15): 4 pg/mL | IFN-g (donor 28188, Table 15): 3 pg/mL | IFN-α (pg/ml) mean [5]: 11 pg/mL | IFN-γ (pg/ml) mean [5]: 182 pg/mL | IFN-a (pg/ml) mean [7]: 13 pg/mL | IFN-g (pg/ml) mean [7]: 19 pg/mL | IFN-a (pg/ml) ×2 (mean ×2, Table 15): 25 pg/mL | IFN-g (pg/ml) ×4 (mean ×4, Table 15): 75 pg/mL
